Assay: xn = mol fraction of the nth substance listed
Conditions: Liquid, Vibrating tube method

CCCCCCCC [octane] + CCCCCC
Conditions	mass density [kg/m3]
342.93 K, 1000 kPa, x2 = 0.5749	640.49
342.93 K, 2000 kPa, x2 = 0.5749	641.81
342.93 K, 3000 kPa, x2 = 0.5749	643.05
342.93 K, 4000 kPa, x2 = 0.5749	644.29
342.93 K, 5000 kPa, x2 = 0.5749	645.58
342.93 K, 6000 kPa, x2 = 0.5749	646.83
342.93 K, 7000 kPa, x2 = 0.5749	648.05
342.93 K, 8000 kPa, x2 = 0.5749	649.28
342.93 K, 9000 kPa, x2 = 0.5749	650.49
342.93 K, 10000 kPa, x2 = 0.5749	651.67
342.93 K, 11000 kPa, x2 = 0.5749	652.87
342.93 K, 12000 kPa, x2 = 0.5749	654.03
342.93 K, 13000 kPa, x2 = 0.5749	655.19
342.93 K, 14000 kPa, x2 = 0.5749	656.31
342.93 K, 15000 kPa, x2 = 0.5749	657.42
342.93 K, 16000 kPa, x2 = 0.5749	658.5
342.93 K, 17000 kPa, x2 = 0.5749	659.57
342.93 K, 18000 kPa, x2 = 0.5749	660.6
342.93 K, 19000 kPa, x2 = 0.5749	661.62
342.93 K, 20000 kPa, x2 = 0.5749	662.6
342.93 K, 21000 kPa, x2 = 0.5749	663.59
342.93 K, 22000 kPa, x2 = 0.5749	664.52
342.93 K, 23000 kPa, x2 = 0.5749	665.48
342.93 K, 24000 kPa, x2 = 0.5749	666.39
342.93 K, 25000 kPa, x2 = 0.5749	667.28
342.94 K, 1000 kPa, x2 = 0.2199	655.33
342.94 K, 2000 kPa, x2 = 0.2199	656.52
342.94 K, 3000 kPa, x2 = 0.2199	657.67
342.94 K, 4000 kPa, x2 = 0.2199	658.87
342.94 K, 5000 kPa, x2 = 0.2199	660.02
342.94 K, 6000 kPa, x2 = 0.2199	661.18
342.94 K, 7000 kPa, x2 = 0.2199	662.34
342.94 K, 8000 kPa, x2 = 0.2199	663.49
342.94 K, 9000 kPa, x2 = 0.2199	664.6
342.94 K, 10000 kPa, x2 = 0.2199	665.73
342.94 K, 11000 kPa, x2 = 0.2199	666.84
342.94 K, 12000 kPa, x2 = 0.2199	667.93
342.94 K, 13000 kPa, x2 = 0.2199	669.01
342.94 K, 14000 kPa, x2 = 0.2199	670.06
342.94 K, 15000 kPa, x2 = 0.2199	671.09
342.94 K, 16000 kPa, x2 = 0.2199	672.1
342.94 K, 17000 kPa, x2 = 0.2199	673.1
342.94 K, 18000 kPa, x2 = 0.2199	674.07
342.94 K, 19000 kPa, x2 = 0.2199	675.02
342.94 K, 20000 kPa, x2 = 0.2199	675.95
342.94 K, 21000 kPa, x2 = 0.2199	676.87
342.94 K, 22000 kPa, x2 = 0.2199	677.76
342.94 K, 23000 kPa, x2 = 0.2199	678.64
342.94 K, 24000 kPa, x2 = 0.2199	679.49
342.94 K, 25000 kPa, x2 = 0.2199	680.34
342.98 K, 1000 kPa, x2 = 0.9308	619.48
342.98 K, 2000 kPa, x2 = 0.9308	620.92
342.98 K, 3000 kPa, x2 = 0.9308	622.34
342.98 K, 4000 kPa, x2 = 0.9308	623.76
342.98 K, 5000 kPa, x2 = 0.9308	625.17
342.98 K, 6000 kPa, x2 = 0.9308	626.56
342.98 K, 7000 kPa, x2 = 0.9308	627.93
342.98 K, 8000 kPa, x2 = 0.9308	629.29
342.98 K, 9000 kPa, x2 = 0.9308	630.63
342.98 K, 10000 kPa, x2 = 0.9308	631.94
342.98 K, 11000 kPa, x2 = 0.9308	633.24
342.98 K, 12000 kPa, x2 = 0.9308	634.53
342.98 K, 13000 kPa, x2 = 0.9308	635.77
342.98 K, 14000 kPa, x2 = 0.9308	637.01
342.98 K, 15000 kPa, x2 = 0.9308	638.23
342.98 K, 16000 kPa, x2 = 0.9308	639.42
342.98 K, 17000 kPa, x2 = 0.9308	640.57
342.98 K, 18000 kPa, x2 = 0.9308	641.7
342.98 K, 19000 kPa, x2 = 0.9308	642.81
342.98 K, 20000 kPa, x2 = 0.9308	643.91
342.98 K, 21000 kPa, x2 = 0.9308	644.95
342.98 K, 22000 kPa, x2 = 0.9308	645.97
342.98 K, 23000 kPa, x2 = 0.9308	646.98
342.98 K, 24000 kPa, x2 = 0.9308	647.95
342.98 K, 25000 kPa, x2 = 0.9308	648.91
342.99 K, 1000 kPa, x2 = 0.1654	657.36
342.99 K, 2000 kPa, x2 = 0.1654	658.52
342.99 K, 3000 kPa, x2 = 0.1654	659.68
342.99 K, 4000 kPa, x2 = 0.1654	660.84
342.99 K, 5000 kPa, x2 = 0.1654	662.01
342.99 K, 6000 kPa, x2 = 0.1654	663.15
342.99 K, 7000 kPa, x2 = 0.1654	664.27
342.99 K, 8000 kPa, x2 = 0.1654	665.4
342.99 K, 9000 kPa, x2 = 0.1654	666.53
342.99 K, 10000 kPa, x2 = 0.1654	667.62
342.99 K, 11000 kPa, x2 = 0.1654	668.73
342.99 K, 12000 kPa, x2 = 0.1654	669.8
342.99 K, 13000 kPa, x2 = 0.1654	670.86
342.99 K, 14000 kPa, x2 = 0.1654	671.91
342.99 K, 15000 kPa, x2 = 0.1654	672.94
342.99 K, 16000 kPa, x2 = 0.1654	673.96
342.99 K, 17000 kPa, x2 = 0.1654	674.95
342.99 K, 18000 kPa, x2 = 0.1654	675.92

From the NIST ThermoML archive (doi:10.1021/je200721d)
